Measured values taken from the supplement of paper PMC10307832.

Experiments:
Test in all cases: relative viability (nuclei count vs DMSO), 5 days (fraction); higher = more cells survive
Neratinib + Luminespib = compound: CCOc1cc2ncc(C#N)c(Nc3ccc(OCc4ccccn4)c(Cl)c3)c2cc1NC(=O)/C=C/CN(C)C [Neratinib] + CCNC(=O)c1noc(-c2cc(C(C)C)c(O)cc2O)c1-c1ccc(CN2CCOCC2)cc1 [Luminespib] (partner 0.01 µM)
In short: (§1)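 Nuclei were stained with Hoechst during a one-step fixation (final 0.05% Triton X-100, 1% formaldehyde, 1 ug/ml Hoechst) carried out 5 days after dosing, then counted on 4× images. The cells, lung cancer lines in 1536-well plates, had been dosed by pin tool the day after seeding with one drug alone or a fixed anchor-drug dose plus five library-drug doses (not always all listed) in √10 steps. Relative viability is the nuclei count in treated wells divided by that in vehicle wells, and each value is the median of duplicate plates.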

Neratinib + Foretinib = compound: CCOc1cc2ncc(C#N)c(Nc3ccc(OCc4ccccn4)c(Cl)c3)c2cc1NC(=O)/C=C/CN(C)C [Neratinib] + COc1cc2c(Oc3ccc(NC(=O)C4(C(=O)Nc5ccc(F)cc5)CC4)cc3F)ccnc2cc1OCCCN1CCOCC1 [Foretinib] (partner 0.25 µM)
In short: as §1

Neratinib + Tozasertib = compound: CCOc1cc2ncc(C#N)c(Nc3ccc(OCc4ccccn4)c(Cl)c3)c2cc1NC(=O)/C=C/CN(C)C [Neratinib] + Cc1cc(Nc2cc(N3CCN(C)CC3)nc(Sc3ccc(NC(=O)C4CC4)cc3)n2)n[nH]1 [Tozasertib] (partner 0.1 µM)
In short: as §1

Neratinib + AZD7762 = compound: CCOc1cc2ncc(C#N)c(Nc3ccc(OCc4ccccn4)c(Cl)c3)c2cc1NC(=O)/C=C/CN(C)C [Neratinib] + NC(=O)Nc1cc(-c2cccc(F)c2)sc1C(=O)N[C@H]1CCCNC1 [AZD7762] (partner 0.2 µM)
In short: as §1

| Cell Line | relative viability (Neratinib + Luminespib; first compound 0.01 µM) | relative viability (Neratinib + Luminespib; first compound 0.03162 µM) | relative viability (Neratinib + Luminespib; first compound 0.1 µM) | relative viability (Neratinib + Luminespib; first compound 0.3162 µM) | relative viability (Neratinib + Luminespib; first compound 1 µM) | relative viability (Neratinib + Foretinib; first compound 0.01 µM) | relative viability (Neratinib + Foretinib; first compound 0.03162 µM) | relative viability (Neratinib + Foretinib; first compound 0.1 µM) | relative viability (Neratinib + Foretinib; first compound 0.3162 µM) | relative viability (Neratinib + Foretinib; first compound 1 µM) | relative viability (Neratinib + Tozasertib; first compound 0.01 µM) | relative viability (Neratinib + Tozasertib; first compound 0.03162 µM) | relative viability (Neratinib + Tozasertib; first compound 0.1 µM) | relative viability (Neratinib + Tozasertib; first compound 0.3162 µM) | relative viability (Neratinib + Tozasertib; first compound 1 µM) | relative viability (Neratinib + AZD7762; first compound 0.01 µM) | relative viability (Neratinib + AZD7762; first compound 0.03162 µM) | relative viability (Neratinib + AZD7762; first compound 0.1 µM) | relative viability (Neratinib + AZD7762; first compound 0.3162 µM) | relative viability (Neratinib + AZD7762; first compound 1 µM) |
| --- | --- | --- | --- | --- | --- | --- | --- | --- | --- | --- | --- | --- | --- | --- | --- | --- | --- | --- | --- | --- |
| NCI-H3122 | 0.103 | 0.0884 | 0.119 | 0.102 | 0.11 | 1.05 | 0.985 | 0.94 | 0.958 | 0.171 | 0.437 | 0.422 | 0.388 | 0.375 | 0.135 | 1.05 | 1 | 0.88 | 1.01 | 0.438 |
| PC-3 [JPC-3] | 0.702 | 0.733 | 0.648 | 0.496 | 0.326 | 1.07 | 1.14 | 0.927 | 0.815 | 0.318 | 0.891 | 0.922 | 0.822 | 0.773 | 0.406 | 0.798 | 0.863 | 0.856 | 0.487 | 0.51 |
| PC-14 | 0.176 | 0.129 | 0.156 | 0.116 | 0.129 | 1.04 | 0.973 | 0.862 | 0.929 | 0.335 | 0.574 | 0.721 | 0.627 | 0.454 | 0.0727 | 0.366 | 0.41 | 0.36 | 0.242 | 0.134 |
| RERF-LC-KJ | 1.45 | 1.18 | 1.16 | 1.14 | 0.531 | 0.924 | 0.992 | 0.896 | 0.872 | 0.43 | 0.553 | 0.593 | 0.586 | 0.5 | 0.293 | 1.06 | 1.1 | 0.741 | 0.734 | 0.679 |
| SW 900 | 0.184 | 0.157 | 0.148 | 0.194 | 0.169 | 0.937 | 0.917 |  | 0.865 | 0.709 | 0.561 | 0.444 | 0.673 | 0.517 | 0.387 | 0.696 | 0.753 | 0.526 | 0.54 | 0.409 |
